In ChEMBL document CHEMBL2057063, “Exogenous fluorescent tracer agents based on pegylated pyrazine dyes for real-time point-of-care measurement of glomerular filtration rate” (Bioorg Med Chem, 2012):

Legend:
[1] = Plasma protein binding in rat at 20 uM after 1 hr by HPLC analysis; format: ADME, cell-free; details: read-out: PPB (converted)
[2] = Drug excretion in Sprague-Dawley rat urine administered via tail vein measured after 6 hrs by HPLC analysis; format: ADME; details: iv, read-out: Ae
Rattus norvegicus = organism: Rattus norvegicus; assay: Volume of distribution in Sprague-Dawley rat; format: ADME, organism-based; details: in vivo
[3] = Terminal elimination half life in Sprague-Dawley rat plasma; format: ADME, cell-free; details: read-out: beta t1/2
[4] = Clearance in Sprague-Dawley rat in presence of 70 mg/kg probenecid administered 10 mins prior to compound treatment; format: ADME, organism-based; set-up: dose 70 mg/kg; details: in vivo, with probenecid 70 mg/kg
[5] = Clearance in Sprague-Dawley rat; format: ADME, organism-based; details: in vivo
[6] = Terminal elimination half life in Sprague-Dawley rat blood; format: ADME, tissue-based; details: read-out: beta t1/2

| Structure (SMILES) | fraction unbound at 1 h, 20 µM [1] | dose excreted at 6 h [2] | Vd (Rattus norvegicus) | half-life [3] | clearance [4] | clearance [5] | half-life [6] |
| --- | --- | --- | --- | --- | --- | --- | --- |
| COCCOCCOCCOCCOCCOCCOCCOCCOCCOCCOCCOCCOCCOCCOCCOCCOCCOCCOCCOCCOCCOCCOCCOCCCNc1nc(C(=O)NCCOCCOCCOCCOCCOCCOCCOCCOCCOCCOCCOCCOCCOCCOCCOCCOCCOCCOCCOCCOCCOCCOCCOCCOC)c(NCCCOCCOCCOCCOCCOCCOCCOCCOCCOCCOCCOCCOCCOCCOCCOCCOCCOCCOCCOCCOCCOCCOCCOCCOC)nc1C(=O)NCCOCCOCCOCCOCCOCCOCCOCCOCCOCCOCCOCCOCCOCCOCCOCCOCCOCCOCCOCCOCCOCCOCCOCCOC | 0.61 | 86% |  |  |  |  |  |
| Nc1nc(C(=O)N[C@H](CO)C(=O)O)c(N)nc1C(=O)N[C@H](CO)C(=O)O [RELMAPIRAZIN] |  | 90% | 83 mL |  |  |  |  |
| COCCOCCOCCOCCOCCOCCOCCOCCNC(=O)c1nc(N)c(C(=O)NCCOCCOCCOCCOCCOCCOCCOCCOC)nc1N | 1 | 45% |  |  |  |  |  |
| COCCOCCOCCOCCOCCOCCOCCOCCOCCOCCOCCOCCCNc1nc(C(=O)NCCOCCOCCOCCOCCOCCOCCOCCOCCOCCOCCOCCOCCOCCOCCOCCOCCOCCOCCOCCOCCOCCOCCOCCOC)c(NCCCOCCOCCOCCOCCOCCOCCOCCOCCOCCOCCOCCOC)nc1C(=O)NCCOCCOCCOCCOCCOCCOCCOCCOCCOCCOCCOCCOCCOCCOCCOCCOCCOCCOCCOCCOCCOCCOCCOCCOC | 0.59 | 89% | 68 mL | 31 min |  |  |  |
| CCCNc1nc(C(=O)NCCOCCOCCOCCOCCOCCOCCOCCOCCOCCOCCOCCOCCOCCOCCOCCOCCOCCOCCOCCOCCOCCOCCOCCOC)c(NCCC)nc1C(=O)NCCOCCOCCOCCOCCOCCOCCOCCOCCOCCOCCOCCOCCOCCOCCOCCOCCOCCOCCOCCOCCOCCOCCOCCOC | 0.87 | 85% |  |  |  |  |  |
| COCCOCCOCCOCCNC(=O)c1nc(N)c(C(=O)NCCOCCOCCOCCOC)nc1N | 1 | 41% |  |  |  |  |  |
| COCCOCCOCCNc1nc(C(=O)NCCOCCOCCOCCOCCOCCOCCOCCOCCOCCOCCOCCOCCOCCOCCOCCOCCOCCOCCOCCOCCOCCOCCOCCOC)c(NCCOCCOCCOC)nc1C(=O)NCCOCCOCCOCCOCCOCCOCCOCCOCCOCCOCCOCCOCCOCCOCCOCCOCCOCCOCCOCCOCCOCCOCCOCCOC | 0.89 | 96% |  |  |  |  |  |
| COCCOCCOCCOCCOCCOCCOCCOCCCNc1nc(C(=O)NCCOCCOCCOCCOCCOCCOCCOCCOCCOCCOCCOCCOCCOCCOCCOCCOCCOCCOCCOCCOCCOCCOCCOCCOC)c(NCCCOCCOCCOCCOCCOCCOCCOCCOC)nc1C(=O)NCCOCCOCCOCCOCCOCCOCCOCCOCCOCCOCCOCCOCCOCCOCCOCCOCCOCCOCCOCCOCCOCCOCCOCCOC | 0.7 | 92% |  |  |  |  |  |
| COCCOCCOCCOCCOCCOCCOCCOCCCNc1nc(C(=O)NCCOCCOCCOCCOCCOCCOCCOCCOCCOCCOCCOCCOC)c(NCCCOCCOCCOCCOCCOCCOCCOCCOC)nc1C(=O)NCCOCCOCCOCCOCCOCCOCCOCCOCCOCCOCCOCCOC | 0.99 | 87% |  |  |  |  |  |
| COCCOCCOCCOCCOCCOCCOCCOCCOCCOCCOCCOCCOCCOCCOCCOCCOCCOCCOCCOCCOCCOCCOCCOCCNC(=O)c1nc(N)c(C(=O)NCCOCCOCCOCCOCCOCCOCCOCCOCCOCCOCCOCCOCCOCCOCCOCCOCCOCCOCCOCCOCCOCCOCCOCCOC)nc1N | 0.95 | 96% | 64 mL | 25 min | 2.7 mL/min | 2.8 mL/min |  |
| COCCOCCOCCOCCCNc1nc(C(=O)NCCOCCOCCOCCOCCOCCOCCOCCOCCOCCOCCOCCOC)c(NCCCOCCOCCOCCOC)nc1C(=O)NCCOCCOCCOCCOCCOCCOCCOCCOCCOCCOCCOCCOC | 1 | 86% |  |  |  |  |  |
| CNC(=O)c1c(I)c(NC(C)=O)c(I)c(C(=O)[O-])c1I.[Na+] [IOTHALAMATE SODIUM] |  | 80% | 104 mL |  | 2.2 mL/min | 2.5 mL/min |  |
| COCCOCCOCCOCCOCCOCCOCCOCCOCCOCCOCCOCCNC(=O)c1nc(N)c(C(=O)NCCOCCOCCOCCOCCOCCOCCOCCOCCOCCOCCOCCOC)nc1N | 1 | 71% | 70 mL | 20 min |  |  |  |
| COCCOCCOCCOCCOCCOCCOCCOCCOCCOCCOCCOCCCNc1nc(C(=O)NCCOCCOCCOCCOCCOCCOCCOCCOCCOCCOCCOCCOC)c(NCCCOCCOCCOCCOCCOCCOCCOCCOCCOCCOCCOCCOC)nc1C(=O)NCCOCCOCCOCCOCCOCCOCCOCCOCCOCCOCCOCCOC | 0.97 | 97% | 61 mL | 19 min | 3.3 mL/min | 3.1 mL/min | 21.6 min |
| O=C(NCC(O)CO)c1nc(NC[C@H](O)CO)c(C(=O)NCC(O)CO)nc1NC[C@H](O)CO (some centres undefined) |  | 88% |  |  |  |  |  |
